What all share (assay): G' assay (10 uM PL peptide), results of TABLE 7 and TABLE 12
What all share (assay type): binding

The target of test [1] is T1, PDZ protein (GST-PDZ fusion) (Homo sapiens, UniProt P53667).
T1 construct: made in house; host or cells: E. coli (DH5alpha, BL21 or JM109)
The note with it: PDZ LIMK1, PDZ Domain 1. The method, boiled down:
(§1)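 Biotinylated PL peptides at 10 uM (vs 20 uM in G^0 assay) bound to GST-PDZ fusions; PDZ protein at 5 ug/ml unless another concentration listed. Bound peptide read as A450 nm, classified 0–5 (0 = A450 0; 5 = A450 >4 repeated).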

Test [2] addresses T2, PDZ protein (GST-PDZ fusion) (Homo sapiens, UniProt Q9NRD5).
T2 construct: made in house; host or cells: E. coli (DH5alpha, BL21 or JM109)
The conditions noted are these: PDZ PICK1, PDZ Domain 1. The gist of the method: as §1

Test [3] addresses T3, PDZ protein (GST-PDZ fusion) (Homo sapiens, UniProt Q9BXL6).
T3 construct: made in house; host or cells: E. coli (DH5alpha, BL21 or JM109)
T3 sequence (Q9BXL6 1-1004): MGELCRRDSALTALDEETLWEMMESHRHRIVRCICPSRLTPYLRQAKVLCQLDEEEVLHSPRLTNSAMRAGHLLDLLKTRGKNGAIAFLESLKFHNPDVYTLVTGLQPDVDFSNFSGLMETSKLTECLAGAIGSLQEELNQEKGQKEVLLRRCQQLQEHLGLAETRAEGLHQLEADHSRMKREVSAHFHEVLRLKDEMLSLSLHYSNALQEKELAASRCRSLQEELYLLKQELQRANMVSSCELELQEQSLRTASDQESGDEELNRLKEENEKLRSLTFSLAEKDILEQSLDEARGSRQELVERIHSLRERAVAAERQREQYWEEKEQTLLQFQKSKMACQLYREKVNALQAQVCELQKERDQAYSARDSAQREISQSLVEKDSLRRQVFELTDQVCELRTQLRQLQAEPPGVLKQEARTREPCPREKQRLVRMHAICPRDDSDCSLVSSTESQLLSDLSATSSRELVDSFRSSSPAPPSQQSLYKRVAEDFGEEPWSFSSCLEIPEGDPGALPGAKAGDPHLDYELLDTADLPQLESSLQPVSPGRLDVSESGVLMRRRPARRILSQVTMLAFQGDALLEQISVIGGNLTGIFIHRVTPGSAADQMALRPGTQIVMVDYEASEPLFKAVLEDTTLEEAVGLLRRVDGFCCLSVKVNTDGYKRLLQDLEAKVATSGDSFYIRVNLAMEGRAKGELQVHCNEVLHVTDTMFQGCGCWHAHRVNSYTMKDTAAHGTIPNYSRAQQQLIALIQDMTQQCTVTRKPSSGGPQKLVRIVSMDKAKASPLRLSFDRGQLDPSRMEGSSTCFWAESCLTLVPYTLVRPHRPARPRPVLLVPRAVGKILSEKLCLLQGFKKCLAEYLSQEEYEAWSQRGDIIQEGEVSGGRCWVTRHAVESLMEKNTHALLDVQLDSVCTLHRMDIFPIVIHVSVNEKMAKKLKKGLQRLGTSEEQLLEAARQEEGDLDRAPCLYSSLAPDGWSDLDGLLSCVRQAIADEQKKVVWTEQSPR
The conditions noted are these: PDZ CARD14, PDZ Domain 1. The method, boiled down:
as §1

Test [4] has as its target T4, PDZ protein (GST-PDZ fusion) (Homo sapiens, UniProt Q9Y6N9).
T4 construct: made in house; host or cells: E. coli (DH5alpha, BL21 or JM109)
The note with it: PDZ PDZ-73, PDZ Domain 2. The method, boiled down:
as §1

Test [5] concerns the target T5, PDZ protein (GST-PDZ fusion) (Homo sapiens, UniProt O15021).
T5 construct: made in house; host or cells: E. coli (DH5alpha, BL21 or JM109)
The conditions noted are these: PDZ KIAA0303, PDZ Domain 1. The gist of the method: as §1

Ends that are not written are not given here. Peptide text beside a SMILES is read from it. * marks the point of attachment. Biotin = O=C1N[C@H]2[C@H](CS[C@H]2CCCCC(=O)*)N1

T5 sequence (O15021 whole entry, the tested form may be a part): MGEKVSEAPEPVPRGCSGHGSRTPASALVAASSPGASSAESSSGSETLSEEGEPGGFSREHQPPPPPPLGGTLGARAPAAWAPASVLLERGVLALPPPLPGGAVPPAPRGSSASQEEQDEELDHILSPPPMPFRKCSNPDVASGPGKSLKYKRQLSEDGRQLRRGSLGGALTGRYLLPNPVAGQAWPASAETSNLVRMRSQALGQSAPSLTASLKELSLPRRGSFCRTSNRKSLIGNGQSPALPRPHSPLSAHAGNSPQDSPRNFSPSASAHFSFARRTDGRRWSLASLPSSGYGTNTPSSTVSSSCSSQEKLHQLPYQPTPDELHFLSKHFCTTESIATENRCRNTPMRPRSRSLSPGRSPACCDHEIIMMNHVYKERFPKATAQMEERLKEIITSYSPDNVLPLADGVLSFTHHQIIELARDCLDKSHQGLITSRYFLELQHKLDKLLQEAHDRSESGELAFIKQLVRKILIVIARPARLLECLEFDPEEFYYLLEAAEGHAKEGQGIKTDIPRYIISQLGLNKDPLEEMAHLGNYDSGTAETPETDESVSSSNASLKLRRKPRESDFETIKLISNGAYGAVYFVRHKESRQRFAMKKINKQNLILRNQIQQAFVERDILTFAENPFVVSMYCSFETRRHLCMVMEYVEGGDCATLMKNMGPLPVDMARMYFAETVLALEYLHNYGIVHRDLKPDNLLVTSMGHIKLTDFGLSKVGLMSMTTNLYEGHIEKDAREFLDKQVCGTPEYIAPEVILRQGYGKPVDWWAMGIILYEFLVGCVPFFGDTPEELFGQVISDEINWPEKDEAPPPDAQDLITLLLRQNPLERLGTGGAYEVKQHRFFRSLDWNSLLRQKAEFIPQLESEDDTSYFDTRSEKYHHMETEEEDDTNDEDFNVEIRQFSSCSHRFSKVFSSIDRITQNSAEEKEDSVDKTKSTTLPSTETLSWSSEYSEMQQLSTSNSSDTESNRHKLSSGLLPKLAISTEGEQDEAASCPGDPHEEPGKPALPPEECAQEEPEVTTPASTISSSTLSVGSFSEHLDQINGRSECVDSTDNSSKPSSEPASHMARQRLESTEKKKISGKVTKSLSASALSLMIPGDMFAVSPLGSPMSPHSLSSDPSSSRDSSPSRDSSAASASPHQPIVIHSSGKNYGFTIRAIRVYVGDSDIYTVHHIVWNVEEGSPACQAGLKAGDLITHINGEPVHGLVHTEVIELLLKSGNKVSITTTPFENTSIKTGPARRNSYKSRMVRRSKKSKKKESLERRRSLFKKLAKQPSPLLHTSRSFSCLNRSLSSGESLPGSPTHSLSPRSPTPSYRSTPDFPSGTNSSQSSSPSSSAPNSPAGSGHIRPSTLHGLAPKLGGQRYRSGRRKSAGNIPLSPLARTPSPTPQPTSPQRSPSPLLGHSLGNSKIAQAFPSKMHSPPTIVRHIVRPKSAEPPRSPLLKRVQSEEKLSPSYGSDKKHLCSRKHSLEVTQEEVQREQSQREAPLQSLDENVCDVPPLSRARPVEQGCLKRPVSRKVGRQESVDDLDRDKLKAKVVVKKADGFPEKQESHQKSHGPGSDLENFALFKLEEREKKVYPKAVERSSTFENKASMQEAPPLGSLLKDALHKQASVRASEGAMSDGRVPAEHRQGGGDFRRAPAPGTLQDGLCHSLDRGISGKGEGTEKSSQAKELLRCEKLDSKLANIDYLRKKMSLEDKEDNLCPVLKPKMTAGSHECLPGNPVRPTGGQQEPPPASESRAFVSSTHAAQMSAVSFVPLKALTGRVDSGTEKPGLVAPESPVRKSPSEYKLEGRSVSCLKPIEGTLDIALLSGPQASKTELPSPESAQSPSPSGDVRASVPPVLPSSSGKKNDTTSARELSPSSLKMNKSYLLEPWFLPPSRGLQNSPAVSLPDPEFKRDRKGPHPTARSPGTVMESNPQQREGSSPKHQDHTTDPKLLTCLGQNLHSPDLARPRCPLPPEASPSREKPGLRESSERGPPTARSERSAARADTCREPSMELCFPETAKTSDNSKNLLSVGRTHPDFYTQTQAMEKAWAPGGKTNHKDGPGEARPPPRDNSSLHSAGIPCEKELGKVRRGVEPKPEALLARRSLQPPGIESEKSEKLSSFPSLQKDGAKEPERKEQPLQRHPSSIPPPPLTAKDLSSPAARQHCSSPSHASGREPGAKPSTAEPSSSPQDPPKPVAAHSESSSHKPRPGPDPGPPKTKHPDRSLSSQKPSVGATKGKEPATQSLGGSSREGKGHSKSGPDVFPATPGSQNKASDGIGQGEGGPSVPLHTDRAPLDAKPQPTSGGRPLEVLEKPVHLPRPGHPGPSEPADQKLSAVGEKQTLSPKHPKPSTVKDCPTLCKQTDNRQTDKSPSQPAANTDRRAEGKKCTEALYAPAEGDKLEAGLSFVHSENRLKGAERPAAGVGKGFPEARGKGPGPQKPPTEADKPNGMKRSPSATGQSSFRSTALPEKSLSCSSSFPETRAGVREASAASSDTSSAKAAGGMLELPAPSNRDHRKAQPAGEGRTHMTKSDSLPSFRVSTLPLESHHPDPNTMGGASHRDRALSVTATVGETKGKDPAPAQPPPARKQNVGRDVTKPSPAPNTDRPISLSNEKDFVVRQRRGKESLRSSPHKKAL
T4 sequence (Q9Y6N9 whole entry, the tested form may be a part): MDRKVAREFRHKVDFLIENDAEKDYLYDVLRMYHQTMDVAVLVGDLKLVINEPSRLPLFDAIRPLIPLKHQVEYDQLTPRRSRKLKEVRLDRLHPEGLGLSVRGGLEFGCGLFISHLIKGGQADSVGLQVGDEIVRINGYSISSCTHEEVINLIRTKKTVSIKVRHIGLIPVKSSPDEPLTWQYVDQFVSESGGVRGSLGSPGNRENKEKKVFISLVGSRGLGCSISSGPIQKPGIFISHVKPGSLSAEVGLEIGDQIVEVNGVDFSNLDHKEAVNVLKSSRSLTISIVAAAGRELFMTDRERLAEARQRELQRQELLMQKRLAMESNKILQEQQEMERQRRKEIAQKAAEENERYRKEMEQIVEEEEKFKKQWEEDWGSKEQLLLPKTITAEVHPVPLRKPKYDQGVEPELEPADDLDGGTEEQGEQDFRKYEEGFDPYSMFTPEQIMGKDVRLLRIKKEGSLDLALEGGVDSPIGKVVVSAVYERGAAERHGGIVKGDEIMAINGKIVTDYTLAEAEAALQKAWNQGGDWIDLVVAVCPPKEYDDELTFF
T1 sequence (P53667 whole entry, the tested form may be a part): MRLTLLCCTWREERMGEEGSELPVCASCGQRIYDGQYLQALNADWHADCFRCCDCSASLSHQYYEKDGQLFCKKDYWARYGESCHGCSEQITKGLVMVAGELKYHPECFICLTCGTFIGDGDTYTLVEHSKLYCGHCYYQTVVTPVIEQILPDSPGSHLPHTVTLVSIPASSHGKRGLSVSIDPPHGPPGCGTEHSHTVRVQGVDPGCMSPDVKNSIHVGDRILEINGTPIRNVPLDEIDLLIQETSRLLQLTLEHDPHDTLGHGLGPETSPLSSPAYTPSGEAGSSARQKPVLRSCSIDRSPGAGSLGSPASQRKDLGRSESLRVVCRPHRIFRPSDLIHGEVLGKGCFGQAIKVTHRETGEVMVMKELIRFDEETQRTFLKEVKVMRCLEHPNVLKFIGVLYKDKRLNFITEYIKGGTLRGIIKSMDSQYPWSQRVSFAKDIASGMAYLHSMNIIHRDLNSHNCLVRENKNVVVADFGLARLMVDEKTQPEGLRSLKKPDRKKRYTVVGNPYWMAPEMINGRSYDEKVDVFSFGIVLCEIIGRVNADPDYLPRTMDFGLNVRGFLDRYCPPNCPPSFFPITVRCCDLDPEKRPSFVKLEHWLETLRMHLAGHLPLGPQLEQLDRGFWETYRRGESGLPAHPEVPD
T2 sequence (Q9NRD5 whole entry, the tested form may be a part): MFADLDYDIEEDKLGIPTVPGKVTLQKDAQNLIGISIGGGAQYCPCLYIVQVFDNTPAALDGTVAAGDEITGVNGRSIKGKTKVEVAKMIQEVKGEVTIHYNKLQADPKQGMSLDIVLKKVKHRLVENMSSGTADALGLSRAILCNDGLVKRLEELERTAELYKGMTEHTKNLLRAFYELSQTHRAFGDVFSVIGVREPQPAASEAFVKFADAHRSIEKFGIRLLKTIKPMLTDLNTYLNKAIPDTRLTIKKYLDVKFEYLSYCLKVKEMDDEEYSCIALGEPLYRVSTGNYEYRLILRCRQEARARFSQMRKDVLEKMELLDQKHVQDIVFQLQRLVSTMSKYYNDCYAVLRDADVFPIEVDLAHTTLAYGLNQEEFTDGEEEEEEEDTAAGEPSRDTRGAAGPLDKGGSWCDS

As to `CC[C@H](C)[C@H](NC(=O)[C@H](CCC(N)=O)NC(=O)CCCC[C@@H]1SC[C@@H]2NC(=O)N[C@@H]21)C(=O)N[C@@H](CO)C(=O)N1CCC[C@H]1C(=O)NCC(=O)NCC(=O)N[C@@H](CC(C)C)C(=O)N[C@@H](CCC(=O)O)C(=O)N1CCC[C@H]1C(=O)N1CCC[C@H]1C(=O)N[C@@H](CO)C(=O)N[C@@H](CCC(=O)O)C(=O)N[C@@H](CCCCN)C(=O)N[C@@H](Cc1c[nH]cn1)C(=O)N[C@@H](Cc1ccccc1)C(=O)N[C@@H](CCCNC(=N)N)C(=O)N[C@@H](CCC(=O)O)C(=O)N[C@H](C(=O)N[C@@H](CCC(=O)O)C(=O)N[C@H](C(=O)O)C(C)C)[C@@H](C)O` [Tax], the Classification in test [1] is reported as 1 (A450 nm 0-1).
Consider `CC[C@H](C)[C@H](NC(=O)[C@H](C)NC(=O)[C@H](CC(C)C)NC(=O)[C@H](Cc1c[nH]c2ccccc12)NC(=O)[C@H](Cc1c[nH]cn1)NC(=O)[C@H](CCC(N)=O)NC(=O)[C@H](CC(C)C)NC(=O)[C@H](CCC(N)=O)NC(=O)[C@H](Cc1ccccc1)NC(=O)[C@H](CCC(N)=O)NC(=O)[C@H](CCCNC(=N)N)NC(=O)[C@@H](NC(=O)[C@H](CC(=O)O)NC(=O)[C@H](CCCNC(=N)N)NC(=O)[C@H](CCC(N)=O)NC(=O)[C@H](C)NC(=O)[C@@H](NC(=O)[C@H](CC(C)C)NC(=O)[C@H](Cc1c[nH]cn1)NC(=O)[C@H](Cc1c[nH]cn1)NC(=O)CCCC[C@@H]1SC[C@@H]2NC(=O)N[C@@H]21)C(C)C)[C@@H](C)CC)C(=O)O` [noradrenaline transporter] (Biotin-HHLVAQRDIRQFQLQHWLAI-OH; C-terminus assumed), for which the Classification in test [2] was 1 (A450 nm 0-1).
In the case of “A2AA_HUMAN (modified) (Biotin-HDFRRAFKKILARGDRKRIV; not fully specified)”, the Classification in test [3] was 1 (A450 nm 0-1).
The same measure, in the same setting: as for “A2AC_HUMAN (Modified) (Biotin-DFRPSFKHILFRRARRGFRQ; not fully specified)”, the figure is 5 (A450 nm of 4 more than 2× repeated).
In the case of `CC[C@H](C)[C@H](NC(=O)CNC(=O)[C@H](CO)NC(=O)[C@H](Cc1ccccc1)NC(=O)[C@@H](NC(=O)[C@H](CS)NC(=O)CNC(=O)CNC(=O)[C@H](C)NC(=O)[C@@H]1CCCN1C(=O)[C@@H](NC(=O)[C@@H]1CCCN1C(=O)CCCC[C@@H]1SC[C@@H]2NC(=O)N[C@@H]21)[C@@H](C)CC)[C@@H](C)O)C(=O)N[C@@H](Cc1ccccc1)C(=O)N1CCC[C@H]1C(=O)N[C@H](C(=O)N[C@@H](CC(C)C)C(=O)N[C@H](C(=O)N[C@@H](CO)C(=O)N1CCC[C@H]1C(=O)N[C@@H](CC(C)C)C(=O)O)[C@@H](C)O)[C@@H](C)O` [KIA 1481] (Biotin-PIPAGGCTFSGIFPTLTSPL-OH; C-terminus assumed), the Classification in test [4] is 1 (A450 nm 0-1).
On to “ELLQFCRTPNPALKNGQYWV (Biotin-ELLQFCRTPNPALKNGQYWV)”, for which the Classification in test [5] is reported as 1 (A450 nm 0-1).
As to `CSCC[C@H](NC(=O)[C@H](C)NC(=O)[C@H](CCCNC(=N)N)NC(=O)CNC(=O)[C@@H](NC(=O)[C@H](Cc1c[nH]c2ccccc12)NC(=O)[C@H](CCCNC(=N)N)NC(=O)CNC(=O)CCCC[C@@H]1SC[C@@H]2NC(=O)N[C@@H]21)[C@@H](C)O)C(=O)N[C@@H](CO)C(=O)N[C@@H](C)C(=O)N[C@@H](Cc1c[nH]c2ccccc12)C(=O)N[C@@H](CCCCN)C(=O)N1CCC[C@H]1C(=O)N[C@H](C(=O)N[C@@H](CCCNC(=N)N)C(=O)N[C@@H](CCCNC(=N)N)C(=O)N[C@@H](CCC(=O)O)C(=O)N[C@H](C(=O)N[C@@H](CCC(=O)O)C(=O)N[C@H](C(=O)O)C(C)C)[C@@H](C)O)[C@@H](C)O` [HPV E6 #35 (modified)] (Biotin-GRWTGRAMSAWKPTRRETEV-OH; C-terminus assumed), the Classification in test [1] is 1 (A450 nm 0-1); in test [4] (PL peptide 10 uM) it was 2 (A450 nm 1-2).
With `CC[C@H](C)[C@H](NC(=O)[C@H](CO)NC(=O)[C@@H](NC(=O)[C@H](Cc1ccccc1)NC(=O)[C@H](CO)NC(=O)CCCC[C@@H]1SC[C@@H]2NC(=O)N[C@@H]21)[C@@H](C)O)C(=O)N[C@@H](CC(C)C)C(=O)N[C@H](C(=O)N[C@@H](CS)C(=O)N[C@@H](Cc1c[nH]cn1)C(=O)N[C@@H](CCC(N)=O)C(=O)N[C@@H](CCCNC(=N)N)C(=O)N[C@@H](CCCNC(=N)N)C(=O)N[C@H](C(=O)N[C@@H](CCC(N)=O)C(=O)N[C@@H](CCCNC(=N)N)C(=O)N[C@@H](CCCCN)C(=O)N[C@@H](CCC(=O)O)C(=O)N[C@H](C(=O)N[C@H](C(=O)N[C@@H](C)C(=O)O)C(C)C)[C@@H](C)O)[C@@H](C)O)[C@@H](C)O` [GluR5-2 (rat)], the Classification in test [5] is listed as 1 (A450 nm 0-1).
Regarding `CC(C)C[C@H](NC(=O)[C@H](Cc1c[nH]c2ccccc12)NC(=O)[C@H](Cc1c[nH]cn1)NC(=O)[C@H](CCCNC(=N)N)NC(=O)[C@H](CC(C)C)NC(=O)[C@@H](NC(=O)[C@H](Cc1ccccc1)NC(=O)[C@H](CCC(N)=O)NC(=O)[C@H](CCCNC(=N)N)NC(=O)[C@@H](NC(=O)[C@H](CCC(=O)O)NC(=O)CNC(=O)[C@H](CCCNC(=N)N)NC(=O)[C@H](CC(=O)O)NC(=O)[C@@H](NC(=O)[C@H](CC(C)C)NC(=O)[C@H](CCC(=O)O)NC(=O)[C@H](CCCNC(=N)N)NC(=O)CCCC[C@@H]1SC[C@@H]2NC(=O)N[C@@H]21)C(C)C)C(C)C)[C@@H](C)O)C(=O)N[C@@H](CCCCN)C(=O)N[C@H](C(=O)O)C(C)C` [Dopamine transporter (Na+-dependent)] (Biotin-RELVDRGEVRQFTLRHWLKV-OH; C-terminus assumed), the Classification in test [2] is 2 (A450 nm 1-2).
